Test results: patent US11806402B2, “Sulfoalkyl ether cyclodextrin compositions” (CyDex Pharmaceuticals, Inc., priority 2008, dated 2023)

Assay: Assay and impurity analysis (HPLC) of heat-stressed SBE6.6-β-CD/glucocorticosteroid (budesonide) formulation
Format: physicochemical
Details: glucocorticosteroid standard, no SBE6.6-β-CD lot
Experimental: Comparative evaluation of the stability of various lots of SBE6.6-β-CD that underwent a single or a double treatment with activated carbon (according to Examples 27 and 24, respectively) were formulated with a glucocorticosteroid (budesonide) and an excipient (water), and were examined by HPLC. The general procedure is provided below.
SBE6.6-β-CD solutions (7.5% w/w, formulated with SBE6.6-β-CD Lot Nos. 17CX01.HQ00025, 17CX01.HQ00029 and 17CX01.HQ00041), were prepared by dissolving about 7.5 grams of SBE6.6-β-CD (corrected for water content) in 100 mL of water. A glucocorticosteroid was weighed in amounts in excess of the anticipated solubilities directly into TEFLON®-lined screw-capped containers. Approximately 275 μg/mL of the glucocorticoid steroid was vigorously stirred for 2 hours in an amber glass container. At the end of the agitation time, the glucocorticosteroid solution was filtered using a 0.24 μm syringe filter.
Control solution samples were removed before autoclaving. Aliquots of the solutions were autoclaved for four 20 minute cycles at 121° C. The samples were then analyzed by HPLC to determine assay content and the level of impurities formed during the heating cycles. Solution samples of SBE6.6-β-CD were prepared and analyzed on a PERKIN ELMER Lambda 35 UV/Vis spectrophotometer, scanning from 190 nm to 400 nm at a speed of 240 nm/min and a slit width of 1.0 nm to determine the UV content.

Compound: CCCC1O[C@@H]2C[C@H]3[C@@H]4CCC5=CC(=O)C=C[C@]5(C)[C@H]4[C@@H](O)C[C@]3(C)[C@]2(C(=O)CO)O1 (stereo partly drawn) [Glucocorticosteroid (“GS”) Std., budesonide]
- Assay GS Total: 99.385 Area %
- Assay R-GS: 51.888 Area %
- Assay S-GS: 47.497 Area %
- Assay Δ: 0%
- Impurities A: 0.001 Area %
- Impurities B (S-11-keto-derivative): 0.127 Area %
